In patent publication US20230013669A1, “Antibacterial Treatment Using a Cannabinoid and an Active Agent” (priority 2019, published 2023):
Several values for one entry are separate records, joined by “and”; a condition that tells them apart may be missing. Identical values can stand only once.

Tested on: Acinetobacter baumannii ATCC 19606 (GN_034)
Experiment: Synergy of cannabidiol with cell-wall disrupting agent (CBD MIC in combination, FICI)
Format: cell-based
Conditions: for FICI range: CBD with Spero SPR206
Description: The compounds were stored short term at 4° C.
Analysis was performed using Microsoft Excel.

[1] = Example 6, GN_034, listed as CBD

C=C(C)C1CCC(C)=CC1c1c(O)cc(CCCCC)cc1O (stereo not shown) [Cannabidiol, 2-[3-methyl-6-(1-methylethenyl)-2-cyclohexen-1-yl]-5-pentyl-1,3-benzenediol]
FICI range (1st of 3 experiments): 0.25-8 | FICI range (3rd of 3 experiments): 1.5-16 | FICI (CBD with Spero SPR206 at 0.25 μg/mL, 1st of 3 experiments, CBD MIC taken as 256 μg/mL): 0.5 | FICI (CBD with Spero SPR206 at 0.25 μg/mL, 3rd of 3 experiments, CBD MIC taken as 256 μg/mL): 2 | FICI (CBD with Spero SPR206 at 0.5 μg/mL, 1st of 3 experiments, CBD MIC taken as 256 μg/mL): 1 | FICI (CBD with Spero SPR206 at 0.5 μg/mL, 3rd of 3 experiments, CBD MIC taken as 256 μg/mL): 3 | FICI (CBD with Spero SPR206 at 1 μg/mL, 1st of 3 experiments, CBD MIC taken as 256 μg/mL): 2 | FICI (CBD with Spero SPR206 at 1 μg/mL, 3rd of 3 experiments, CBD MIC taken as 256 μg/mL): 4.004 and 4.002 | FICI (CBD with Spero SPR206 at 2 μg/mL, 1st of 3 experiments, CBD MIC taken as 256 μg/mL): 4 | FICI (CBD with Spero SPR206 at 2 μg/mL, 3rd of 3 experiments, CBD MIC taken as 256 μg/mL): 8 | FICI (CBD with Spero SPR206 at 4 μg/mL, 1st of 3 experiments, CBD MIC taken as 256 μg/mL): 8 | FICI (CBD with Spero SPR206 at 4 μg/mL, 3rd of 3 experiments, CBD MIC taken as 256 μg/mL): 16 | FICI (CBD with Spero SPR206 at […], 1st of 3 experiments, CBD MIC taken as 256 μg/mL): 0.25 | FICI (CBD with Spero SPR206 at […], 3rd of 3 experiments, CBD MIC taken as 256 μg/mL): 1.5 | FICI (CBD with Ticarcillin at 2 μg/mL, Acinetobacter baumannii ATCC 19606): 0.625 | FICI (CBD with Ticarcillin at 4 μg/mL, Acinetobacter baumannii ATCC 19606): 1.0625 | FICI (CBD with Ticarcillin at 8 μg/mL, Acinetobacter baumannii ATCC 19606): 2 | FICI (CBD with Ticarcillin at 16 μg/mL, Acinetobacter baumannii ATCC 19606): 4 | FICI (CBD with Ticarcillin at 32 μg/mL, Acinetobacter baumannii ATCC 19606): 8 | FICI (CBD with Ticarcillin at 64 μg/mL, Acinetobacter baumannii ATCC 19606): 16 | FICI range (MIC table) (CBD with Ticarcillin, Acinetobacter baumannii ATCC 19606): 0.63-16 | CBD MIC with Cefepime (Cefepime at 4 μg/mL): 32 µg/mL | CBD MIC with Cefepime (Cefepime at 8 μg/mL): 16 µg/mL | CBD MIC with Cefotetan (Cefotetan at 4 μg/mL): >32 µg/mL | CBD MIC with Cefotetan (Cefotetan at 4 μg/mL, Acinetobacter baumannii ATCC 19606): >256 µg/mL | CBD MIC with Cefotetan (Cefotetan at 8 μg/mL): >32 µg/mL | CBD MIC with Cefotetan (Cefotetan at 8 μg/mL, Acinetobacter baumannii ATCC 19606): >256 µg/mL | CBD MIC with Cefotetan (Cefotetan at 16 μg/mL): >32 µg/mL | CBD MIC with Cefotetan (Cefotetan at 16 μg/mL, Acinetobacter baumannii ATCC 19606): >256 µg/mL | CBD MIC with Cefotetan (Cefotetan at 32 μg/mL): >32 µg/mL | CBD MIC with Cefotetan (Cefotetan at 32 μg/mL, Acinetobacter baumannii ATCC 19606): >256 µg/mL | CBD MIC with Cefotetan (Cefotetan at 64 μg/mL): >32 µg/mL | CBD MIC with Cefotetan (Cefotetan at 64 μg/mL, Acinetobacter baumannii ATCC 19606): >256 µg/mL | CBD MIC with Cefotetan (Cefotetan at 128 μg/mL): >32 µg/mL | CBD MIC with Cefotetan (Cefotetan at 128 μg/mL, Acinetobacter baumannii ATCC 19606): >256 µg/mL | CBD MIC with Ceftazidime (Ceftazidime at 0.015 μg/mL as headed in Table 64, Acinetobacter baumannii ATCC 19606): >256 µg/mL | CBD MIC with Ceftazidime (Ceftazidime at 0.031 μg/mL as headed in Table 64, Acinetobacter baumannii ATCC 19606): >256 µg/mL | CBD MIC with Ceftazidime (Ceftazidime at 0.062 μg/mL as headed in Table 64, Acinetobacter baumannii ATCC 19606): >256 µg/mL | CBD MIC with Ceftazidime (Ceftazidime at 0.25 μg/mL as headed in Table 64, Acinetobacter baumannii ATCC 19606): 16 µg/mL | CBD MIC with Ceftazidime (Ceftazidime at 0.5 μg/mL (Table 66), Acinetobacter baumannii ATCC 19606): >32 µg/mL | CBD MIC with Ceftazidime (Ceftazidime at 0.5 μg/mL as headed in Table 64, Acinetobacter baumannii ATCC 19606): 0.001 µg/mL | CBD MIC with Ceftazidime (Ceftazidime at 1 μg/mL (Table 66), Acinetobacter baumannii ATCC 19606): >32 µg/mL | CBD MIC with Ceftazidime (Ceftazidime at 2 μg/mL (Table 66), Acinetobacter baumannii ATCC 19606): >32 µg/mL | CBD MIC with Ceftazidime (Ceftazidime at 4 μg/mL (Table 66), Acinetobacter baumannii ATCC 19606): 32 µg/mL | CBD MIC with Ceftazidime (Ceftazidime at 8 μg/mL (Table 66), Acinetobacter baumannii ATCC 19606): 16 µg/mL | CBD MIC with Ceftazidime (Ceftazidime at 16 μg/mL (Table 66), Acinetobacter baumannii ATCC 19606): 0.001 µg/mL | CBD MIC with Ceftazidime (Ceftazidime at […] as headed in Table 64, Acinetobacter baumannii ATCC 19606): 32 µg/mL | CBD MIC with Colistin (Colistin at 0.031 μg/mL, Acinetobacter baumannii ATCC 19606): 4 µg/mL | CBD MIC with Colistin (Colistin at 0.062 μg/mL, Acinetobacter baumannii ATCC 19606): 2 µg/mL | CBD MIC with Colistin (Colistin at 0.25 μg/mL, Acinetobacter baumannii ATCC 19606): 1 µg/mL | CBD MIC with Colistin (Colistin at 1 μg/mL, Acinetobacter baumannii ATCC 19606): 0.001 µg/mL | CBD MIC with Colistin (Colistin at […], Acinetobacter baumannii ATCC 19606): 1 µg/mL | activity of cannabidiol in combination with Polymyxin B (Example 1): effective | Average FICI score (Example 1, GN_034, cannabidiol + MCC_006636 (Polymyxin B)): 0.135 | Synergy (Example 1, GN_034, cannabidiol + MCC_006636 (Polymyxin B), synergy when FICI≤0.5): YES | activity of cannabidiol combined with cefuroxime (Example 2): effective | CBD MIC with Cefuroxime at concentration 4 μg/mL (Example 2, GN_034): >256 µg/mL | CBD MIC with Cefuroxime at concentration 8 μg/mL (Example 2, GN_034): >256 µg/mL | CBD MIC with Cefuroxime at concentration 16 μg/mL (Example 2, GN_034): 32 µg/mL | CBD MIC with Cefuroxime at concentration 64 μg/mL (Example 2, GN_034): 0.0625 µg/mL | CBD MIC with Cefuroxime at concentration 128 μg/mL (Example 2, GN_034): 0.0009766 µg/mL | CBD MIC with Cefuroxime at concentration 32 μg/mL (Example 2, GN_034, listed as CBD): 16 µg/mL and 32 µg/mL | activity of cannabidiol combined with colistin (Example 3): effective | CBD MIC with Colistin at concentration 0.03125 μg/mL (Example 3, GN_034): 4 µg/mL | CBD MIC with Colistin at concentration 0.0625 μg/mL (Example 3, GN_034): 2 µg/mL | CBD MIC with Colistin at concentration 0.25 μg/mL (Example 3, GN_034): 1 µg/mL | CBD MIC with Colistin at concentration 1 μg/mL (Example 3, GN_034): 0.0009766 µg/mL | CBD MIC with Colistin at concentration […] (Example 3, GN_034): 1 µg/mL | activity of cannabidiol combined with octapeptin MCC_006442 (Example 4): effective | activity of cannabidiol combined with aztreonam (Example 5): effective | activity of cannabidiol combined with cefepime (Example 5): effective | CBD MIC with Aztreonam at concentration 0.5 μg/mL (Example 5, GN_034): >256 µg/mL | CBD MIC with Aztreonam at concentration 1 μg/mL (Example 5, GN_034): >256 µg/mL | CBD MIC with Aztreonam at concentration 2 μg/mL (Example 5, GN_034): >256 µg/mL | CBD MIC with Aztreonam at concentration 4 μg/mL (Example 5, GN_034): 32 µg/mL | CBD MIC with Aztreonam at concentration 8 μg/mL (Example 5, GN_034): 32 µg/mL | CBD MIC with Aztreonam at concentration 16 μg/mL (Example 5, GN_034): 0.0009766 µg/mL | CBD MIC with Cefepime at concentration 0.25 μg/mL (Example 5, GN_034): >256 µg/mL | CBD MIC with Cefepime at concentration 0.5 μg/mL (Example 5, GN_034): >256 µg/mL | CBD MIC with Cefepime at concentration 1 μg/mL (Example 5, GN_034): >256 µg/mL | CBD MIC with Cefepime at concentration 2 μg/mL (Example 5, GN_034): >256 µg/mL | CBD MIC with Cefepime at concentration 4 μg/mL (Example 5, GN_034): 32 µg/mL | CBD MIC with Cefepime at concentration 8 μg/mL (Example 5, GN_034): 16 µg/mL | activity of cannabidiol combined with Polymyxin B (Example 6): effective | CBD MIC with Polymyxin B at concentration 0.015625 μg/mL (Example 6, GN_034): >256 µg/mL | CBD MIC with Polymyxin B at concentration 0.03125 μg/mL (Example 6, GN_034): >256 µg/mL | CBD MIC with Polymyxin B at concentration 0.0625 μg/mL (Example 6, GN_034): >256 µg/mL | CBD MIC with Polymyxin B at concentration 0.5 μg/mL (Example 6, GN_034): 0.0009766 µg/mL | CBD MIC with Polymyxin B at concentration 0.25 μg/mL [1]: 8 µg/mL and 4 µg/mL | CBD MIC with Polymyxin B at concentration […] [1]: 16 µg/mL and 8 µg/mL | activity of cannabidiol in combination with octapeptin MCC_006442 (Example 7): effective | activity of cannabidiol combined with cefuroxime (Example 12): effective | activity of cannabidiol combined with colistin (Example 14): effective | activity of cannabidiol combined with octapeptin MCC_006442 (Example 15): effective | activity of cannabidiol combined with aztreonam (Example 18): effective | activity of cannabidiol combined with cefepime (Example 19): effective | activity of cannabidiol combined with octapeptin C4 (Example 21): effective | activity of cannabidiol in combination with Spero Potentiator SPR741 (Example 22): effective | activity of cannabidiol in combination with Spero SPR206 (Example 22): effective | activity of cannabidiol in combination with octapeptin FADDI-287 (Example 23): effective | activity of cannabidiol in combination with MCC_8980 (Example 24): effective | CBD MIC with Octapeptin C4 (Octapeptin C4 at 2 μg/mL, listed as CBD): 16 µg/mL | CBD MIC with Spero SPR206 (Spero SPR206 at 1 μg/mL, 3rd of 3 experiments, listed as CBD): 0.5 µg/mL | CBD MIC with Ticarcillin (Ticarcillin at 16 μg/mL, Acinetobacter baumannii ATCC 19606): 0.001 µg/mL | CBD MIC with Ticarcillin (Ticarcillin at 32 μg/mL, Acinetobacter baumannii ATCC 19606): 0.001 µg/mL | CBD MIC with Ticarcillin (Ticarcillin at 64 μg/mL, Acinetobacter baumannii ATCC 19606): 0.001 µg/mL
